Source: article PMC10885153, “Membrane Permeability in a Large Macrocyclic Peptide Driven by a Saddle-Shaped Conformation” (Journal of the American Chemical Society, 2024)
Positions of bridges follow the written chain, without caps; N, C: chain ends. Non-standard residues stand in square brackets, D forms with d. Residues, ends and D or L forms follow the SMILES beside them. Cha = N[C@@H](CC1CCCCC1)C(=O)O; NMeNva = CCC[C@H](NC)C(=O)O; NMeC = CN[C@@H](CS)C(=O)O; NMeA = CN[C@@H](C)C(=O)O; dAbu = CC[C@@H](N)C(=O)O; dNMeA = CN[C@H](C)C(=O)O; Nva = CCC[C@H](N)C(=O)O; Abu = CC[C@H](N)C(=O)O; Nleu = CC(C)CNCC(=O)O; NPrGly = CCCNCC(=O)O; NEtG = CCNCC(=O)O

Assays:
in vitro = details: PAMPA, pH 7.4, PAMPA Pe_avg
Protocol: Passive permeabilities of the 36 compounds were measured in multiplex as mixtures of six compounds each using the parallel artificial membrane permeability assay (PAMPA).[44]−[46]
Protocol is identical for both mixture and pure compound analysis.
Two of the following: Carbamazepine (CBZ), propranolol (Prop), and 1NMe35 were
included as internal standards and prepared as DMSO stocks at a concentration of 2 000 µM.
assay was carried out with a 96-well donor plate with 0.45 μ hydrophobic Immobilon-P membrane supports
(Millipore MAIPNTR10) and a 96-well Teflon acceptor plate (Millipore MSSACCEPTOR).
protocol then proceeded as follows:
Donor well solutions were prepared to a volume of 1 000 µL with the analytes as a solution in 1X
PBS pH 7.4 and 5% DMSO. To a 3 mL Eppendorf tube was added 950 µL of 1X PBS pH 7.4, 40
The solutions were vortexed and set aside.
Analyte – 10 µM per compound
A 1% solution of soy lecithin in dodecane was freshly prepared in a 3 mL Eppendorf tube and
sonicated (5 min) to ensure full dissolution of the lecithin. The donor membrane plate was turned
upside down and bottom of the membranes exposed. 5 µL of the 1% soy lecithin solution in
dodecane was then placed on the bottom of the membrane, allowing the drop to spread across the
full area of the membrane. Any membranes with visible damage were not used in the assay.
membranes were allowed to equilibrate for 5 min before loading.
Each well within the Teflon block acceptor plate that was to be used in the assay was then loaded
with 300 µL of 1X PBS pH 7.4 and 5% DMSO.
Working without break, 150 µL of each donor well solution was transferred from the to the 96-well
donor plate. Each mixture of interest was r un in quadruplicate, using a new well for each replicate.
As soon as the 96-well donor plate was finished being loaded, it was gently placed into the 96-well
Teflon acceptor plate, taking care not to trap any air bubbles beneath the membrane.
The donor/acceptor plates were covered gently with the lid to minimize evaporation and transferred
gently as a system to a sealed chamber and left to sit overnight at room temperature. The chamber
was kept from drying by placing a wet paper towel within to prevent evaporation.
After ~19-20 hours the donor plate was removed from the acceptor plate.
50 µL of each well (donor and acceptor) were transferred to a 96 -well plate and diluted with 50 µL
of methanol prior to heat sealing and quantification by UPLC -MS.

Papp at 10 µM (in vitro) | Compound | further results
0.003 ×10⁻⁶ cm/s | CCOC(=O)[C@@H]1CSCC(=O)N[C@@H](CC)C(=O)N(C)[C@@H](C)C(=O)N[C@@H](CC(C)C)C(=O)N2CCC[C@H]2C(=O)N(CC)CC(=O)N[C@H](CC(C)C)C(=O)N(C)[C@@H](C)C(=O)N[C@@H](CC(C)C)C(=O)N1C [JF206_ALL_LLDL_Ethyl] ({CH2CO}-[Abu][NMeA]LP[NEtG][dL][NMeA]L[NMeC]-OEt; thioether N-9) | –
0.005 ×10⁻⁶ cm/s | CCOC(=O)[C@@H]1CSCC(=O)N[C@H](CC)C(=O)N(C)[C@@H](C)C(=O)N[C@H](CC(C)C)C(=O)N2CCC[C@@H]2C(=O)N(CC)CC(=O)N[C@@H](CC(C)C)C(=O)N(C)[C@H](C)C(=O)N[C@@H](CC(C)C)C(=O)N1C [JF206_ADD_DDLD_Ethyl] ({CH2CO}-[dAbu][NMeA][dL][dP][NEtG]L[dNMeA]L[NMeC]-OEt; thioether N-9) | –
0.678 ×10⁻⁶ cm/s | CCOC(=O)[C@@H]1CSCC(=O)N[C@@H](CC)C(=O)N(C)[C@@H](C)C(=O)N[C@@H](CC(C)C)C(=O)N2CCC[C@H]2C(=O)N(CC)CC(=O)N[C@@H](CC(C)C)C(=O)N(C)[C@@H](C)C(=O)N[C@@H](CC(C)C)C(=O)N1C [JF206_ALL_LLLL_Ethyl] ({CH2CO}-[Abu][NMeA]LP[NEtG]L[NMeA]L[NMeC]-OEt; thioether N-9) | –
0.027 ×10⁻⁶ cm/s | CCOC(=O)[C@@H]1CSCC(=O)N[C@H](CC)C(=O)N(C)[C@@H](C)C(=O)N[C@@H](CC(C)C)C(=O)N2CCC[C@H]2C(=O)N(CC)CC(=O)N[C@H](CC(C)C)C(=O)N(C)[C@@H](C)C(=O)N[C@@H](CC(C)C)C(=O)N1C [JF206_ALD_DLDL_Ethyl] ({CH2CO}-[dAbu][NMeA]LP[NEtG][dL][NMeA]L[NMeC]-OEt; thioether N-9) | –
0.013 ×10⁻⁶ cm/s | CCOC(=O)[C@@H]1CSCC(=O)N[C@@H](CC)C(=O)N(C)[C@@H](C)C(=O)N[C@H](CC(C)C)C(=O)N2CCC[C@@H]2C(=O)N(CC)CC(=O)N[C@@H](CC(C)C)C(=O)N(C)[C@@H](C)C(=O)N[C@@H](CC(C)C)C(=O)N1C [JF206_ADL_LDLL_Ethyl] ({CH2CO}-[Abu][NMeA][dL][dP][NEtG]L[NMeA]L[NMeC]-OEt; thioether N-9) | –
0.015 ×10⁻⁶ cm/s | CCOC(=O)[C@@H]1CSCC(=O)N[C@@H](CC)C(=O)N(C)[C@@H](C)C(=O)N[C@H](CC(C)C)C(=O)N2CCC[C@H]2C(=O)N(CC)CC(=O)N[C@@H](CC(C)C)C(=O)N(C)[C@@H](C)C(=O)N[C@@H](CC(C)C)C(=O)N1C [JF206_ALL_LDLL_Ethyl] ({CH2CO}-[Abu][NMeA][dL]P[NEtG]L[NMeA]L[NMeC]-OEt; thioether N-9) | –
0.315 ×10⁻⁶ cm/s | CCOC(=O)[C@@H]1CSCC(=O)N[C@@H](CC)C(=O)N(C)[C@@H](C)C(=O)N[C@H](CC(C)C)C(=O)N2CCC[C@@H]2C(=O)N(CC)CC(=O)N[C@H](CC(C)C)C(=O)N(C)[C@@H](C)C(=O)N[C@@H](CC(C)C)C(=O)N1C [JF206_ADL_LDDL_Ethyl] ({CH2CO}-[Abu][NMeA][dL][dP][NEtG][dL][NMeA]L[NMeC]-OEt; thioether N-9) | –
0.014 ×10⁻⁶ cm/s | CCOC(=O)[C@@H]1CSCC(=O)N[C@@H](CC)C(=O)N(C)[C@@H](C)C(=O)N[C@@H](CC(C)C)C(=O)N2CCC[C@H]2C(=O)N(CC)CC(=O)N[C@@H](CC(C)C)C(=O)N(C)[C@H](C)C(=O)N[C@@H](CC(C)C)C(=O)N1C [JF206_ALL_LLLD_Ethyl] ({CH2CO}-[Abu][NMeA]LP[NEtG]L[dNMeA]L[NMeC]-OEt; thioether N-9) | –
0.012 ×10⁻⁶ cm/s | CCOC(=O)[C@@H]1CSCC(=O)N[C@@H](CC)C(=O)N(C)[C@@H](C)C(=O)N[C@H](CC(C)C)C(=O)N2CCC[C@H]2C(=O)N(CC)CC(=O)N[C@@H](CC(C)C)C(=O)N(C)[C@H](C)C(=O)N[C@@H](CC(C)C)C(=O)N1C [JF206_ALL_LDLD_Ethyl] ({CH2CO}-[Abu][NMeA][dL]P[NEtG]L[dNMeA]L[NMeC]-OEt; thioether N-9) | –

The remaining lines, values behind:

Compound | Papp at 10 µM (in vitro) | further results
CCC[C@@H]1NC(=O)CN(CC)C(=O)[C@H](CC(C)C)NC(=O)CSC[C@@H](C(=O)OCC)N(C)C(=O)[C@H](CC(C)C)NC(=O)[C@H](C)N(C)C(=O)[C@H](CC)NC(=O)[C@H](C)N(C)C(=O)[C@H]2CCCN2C1=O [LB01, O=C(N(C)[C@H](C(OCC)=O)CSCC(N[C@H](C1=O)CC(C)C)=O)[C@H](CC(C)C)NC([C@H](C)N(C)C([C@H](CC)NC([C@H](C)N(C)C([C@@H]2N(C([C@H](CCC)NC(CN1CC)=O)=O)CCC2)=O)=O)=O)=O] ({CH2CO}-L[NEtG][Nva][dP][NMeA][Abu][NMeA]L[NMeC]-OEt; thioether N-9) | – | %R_avg (PAMPA, 10 µM, pH 7.4): 62.4%
CCOC(=O)[C@@H]1CSCC(=O)N[C@@H](CC(C)C)C(=O)N(C)[C@@H](C)C(=O)N[C@@H](CC(C)C)C(=O)N2CCC[C@@H]2C(=O)N(CC)CC(=O)N[C@@H](CC2CCCCC2)C(=O)N(C)[C@@H](C)C(=O)N[C@@H](CC(C)C)C(=O)N1C [LA10, O=C(N(C)[C@H](C(OCC)=O)CSCC(N[C@H](C(N(C)[C@@H](C)C(N[C@@H](CC(C)C)C(N1[C@H](CCC1)C(N(CC)CC(N[C@H]2CC3CCCCC3)=O)=O)=O)=O)=O)CC(C)C)=O)[C@H](CC(C)C)NC([C@H](C)N(C)C2=O)=O] ({CH2CO}-L[NMeA]L[dP][NEtG][Cha][NMeA]L[NMeC]-OEt; thioether N-9) | – | %R_avg (PAMPA, 10 µM, pH 7.4): 13.0%; Pe_avg (PAMPA, 10 µM, pH 7.4): 0 ×10⁻⁶ cm/s
CCOC(=O)[C@@H]1CSCC(=O)N[C@H](CC)C(=O)N(C)[C@@H](C)C(=O)N[C@@H](CC(C)C)C(=O)N2CCC[C@H]2C(=O)N(CC)CC(=O)N[C@H](CC(C)C)C(=O)N(C)[C@H](C)C(=O)N[C@@H](CC(C)C)C(=O)N1C [JF206_ALD_DLDD_Ethyl] ({CH2CO}-[dAbu][NMeA]LP[NEtG][dL][dNMeA]L[NMeC]-OEt; thioether N-9) | – | PAMPA Pe_avg: 0 ×10⁻⁶ cm/s
CCC[C@@H]1NC(=O)[C@H](C)N(C)C(=O)[C@H](CC(C)C)NC(=O)CSC[C@@H](C(=O)OCC)N(C)C(=O)[C@H](CC(C)C)NC(=O)[C@H](C)N(C)C(=O)[C@H](CC2CCCCC2)NC(=O)CN(CCC)C(=O)[C@H]2CCCN2C1=O [LA11, O=C(N(C)[C@H](C(OCC)=O)CSCC(N[C@H](C(N(C)[C@@H](C)C(N[C@@H](CCC)C(N1[C@H](CCC1)C(N(CCC)CC(N[C@H]2CC3CCCCC3)=O)=O)=O)=O)=O)CC(C)C)=O)[C@H](CC(C)C)NC([C@H](C)N(C)C2=O)=O] ({CH2CO}-L[NMeA][Nva][dP][NPrGly][Cha][NMeA]L[NMeC]-OEt; thioether N-9) | – | %R_avg (PAMPA, 10 µM, pH 7.4): 6.5%
CCC[C@@H]1NC(=O)[C@H](C)N(C)C(=O)[C@H](CC(C)C)NC(=O)CSC[C@@H](C(=O)OCC)N(C)C(=O)[C@H](CC(C)C)NC(=O)[C@H](C)N(C)C(=O)[C@H](CC2CCCCC2)NC(=O)[C@H](CCC)N(C)C(=O)[C@H]2CCCN2C1=O [LC11, O=C(N(C)[C@H](C(OCC)=O)CSCC(N[C@H](C(N(C)[C@@H](C)C(N[C@@H](CCC)C(N1[C@H](CCC1)C(N(C)[C@@H](CCC)C(N[C@H]2CC3CCCCC3)=O)=O)=O)=O)=O)CC(C)C)=O)[C@H](CC(C)C)NC([C@H](C)N(C)C2=O)=O] ({CH2CO}-L[NMeA][Nva][dP][NMeNva][Cha][NMeA]L[NMeC]-OEt; thioether N-9) | – | %R_avg (PAMPA, 10 µM, pH 7.4): 7.4%
CCOC(=O)[C@@H]1CSCC(=O)N[C@@H](CC)C(=O)N(C)[C@@H](C)C(=O)N[C@H](CC(C)C)C(=O)N2CCC[C@@H]2C(=O)N(CC)CC(=O)N[C@H](CC(C)C)C(=O)N(C)[C@H](C)C(=O)N[C@@H](CC(C)C)C(=O)N1C [JF206_ADL_LDDD_Ethyl] ({CH2CO}-[Abu][NMeA][dL][dP][NEtG][dL][dNMeA]L[NMeC]-OEt; thioether N-9) | 0.177 ×10⁻⁶ cm/s | –
CCOC(=O)[C@@H]1CSCC(=O)N[C@H](CC)C(=O)N(C)[C@@H](C)C(=O)N[C@H](CC(C)C)C(=O)N2CCC[C@H]2C(=O)N(CC)CC(=O)N[C@H](CC(C)C)C(=O)N(C)[C@@H](C)C(=O)N[C@@H](CC(C)C)C(=O)N1C [JF206_ALD_DDDL_Ethyl] ({CH2CO}-[dAbu][NMeA][dL]P[NEtG][dL][NMeA]L[NMeC]-OEt; thioether N-9) | 0.18 ×10⁻⁶ cm/s | –
CCOC(=O)[C@@H]1CSCC(=O)N[C@@H](CC)C(=O)N(C)[C@@H](C)C(=O)N[C@@H](CC(C)C)C(=O)N2CCC[C@@H]2C(=O)N(CC)CC(=O)N[C@H](CC(C)C)C(=O)N(C)[C@H](C)C(=O)N[C@@H](CC(C)C)C(=O)N1C [JF206_ADL_LLDD_Ethyl] ({CH2CO}-[Abu][NMeA]L[dP][NEtG][dL][dNMeA]L[NMeC]-OEt; thioether N-9) | 0.018 ×10⁻⁶ cm/s | –
CCOC(=O)[C@@H]1CSCC(=O)N[C@@H](CC)C(=O)N(C)[C@@H](C)C(=O)N[C@@H](CC(C)C)C(=O)N2CCC[C@@H]2C(=O)N(CC)CC(=O)N[C@@H](CC(C)C)C(=O)N(C)[C@H](C)C(=O)N[C@@H](CC(C)C)C(=O)N1C [JF206_ADL_LLLD_Ethyl] ({CH2CO}-[Abu][NMeA]L[dP][NEtG]L[dNMeA]L[NMeC]-OEt; thioether N-9) | 0.326 ×10⁻⁶ cm/s | –
CCOC(=O)[C@@H]1CSCC(=O)N[C@H](CC)C(=O)N(C)[C@@H](C)C(=O)N[C@@H](CC(C)C)C(=O)N2CCC[C@H]2C(=O)N(CC(C)C)CC(=O)N[C@@H](CC(C)C)C(=O)N(C)[C@@H](C)C(=O)N[C@@H](CC(C)C)C(=O)N1C [JF206_ALD_DLLL_Isobutyl] ({CH2CO}-[dAbu][NMeA]LP[Nleu]L[NMeA]L[NMeC]-OEt; thioether N-9) | 0.598 ×10⁻⁶ cm/s | –
CCOC(=O)[C@@H]1CSCC(=O)N[C@H](CC)C(=O)N(C)[C@@H](C)C(=O)N[C@@H](CC(C)C)C(=O)N2CCC[C@H]2C(=O)N(CC(C)C)CC(=O)N[C@H](CC(C)C)C(=O)N(C)[C@@H](C)C(=O)N[C@@H](CC(C)C)C(=O)N1C [JF206_ALD_DLDL_Isobutyl] ({CH2CO}-[dAbu][NMeA]LP[Nleu][dL][NMeA]L[NMeC]-OEt; thioether N-9) | 0.248 ×10⁻⁶ cm/s | –
CCOC(=O)[C@@H]1CSCC(=O)N[C@H](CC)C(=O)N(C)[C@@H](C)C(=O)N[C@H](CC(C)C)C(=O)N2CCC[C@H]2C(=O)N(CC(C)C)CC(=O)N[C@@H](CC(C)C)C(=O)N(C)[C@@H](C)C(=O)N[C@@H](CC(C)C)C(=O)N1C [JF206_ALD_DDLL_Isobutyl] ({CH2CO}-[dAbu][NMeA][dL]P[Nleu]L[NMeA]L[NMeC]-OEt; thioether N-9) | 0.075 ×10⁻⁶ cm/s | –
CCOC(=O)[C@@H]1CSCC(=O)N[C@H](CC)C(=O)N(C)[C@@H](C)C(=O)N[C@@H](CC(C)C)C(=O)N2CCC[C@@H]2C(=O)N(CC(C)C)CC(=O)N[C@H](CC(C)C)C(=O)N(C)[C@H](C)C(=O)N[C@@H](CC(C)C)C(=O)N1C [JF206_ADD_DLDD_Isobutyl] ({CH2CO}-[dAbu][NMeA]L[dP][Nleu][dL][dNMeA]L[NMeC]-OEt; thioether N-9) | 0.118 ×10⁻⁶ cm/s | –
